In US4875922A, “Pyrimidine derivatives” (Imperial Chemical Industries PLC, priority 1986, dated 1989):

Assays:
[1] = tested on: Apple; assay: Whole plant screen for plant growth regulator activity, apple (AP); type: in vivo, Apple (Red Delicious); conditions: 4000 ppm (4 kg/ha), visual score after 2-6 weeks
Procedure: (§1) Compounds 1 to 3 in Table 1 were tested for plant growth regulator activity against five species for various growth effects relevant to plant growth regulation.
(§2) The plant species used in this screen are presented in Table II with the leaf stage at which they were sprayed. Each chemical was applied at 4000 ppm (4 kg/ha in a 1000 l/ha field volume) using a tracksprayer and a SS8004E (Teejet) nozzle.
(§3) After spray the plants were grown in a glasshouse with 25° C. day/22° C. night temperatures and supplementary lighting was supplied when necessary (from mercury vapour lamps), to provide a 16 hour photoperiod. The exception to this were the temperate cereals, wheat and barley which were grown in 16° C. day/13° C. night temperatures.
(§4) After 2-6 weeks in the glasshouse, depending on the time of year, the plants were visually assessed for morphological characteristics. Formulation blanks were used as controls to assess the plants.
(§5) Additional compounds in Table I were tested for plant growth regulator activity using the method of Example 60 except that Tomato was included in the test as an additional species. Tomato, Ailsa Craig, was grown in a single 3 inch pot in peat and treated at the 2 to 21/2 leaves growth stage. The results were presented in Table IV in which Tomato is indicated by the code TO and the Key is otherwise as for Table III.

[2] = tested on: Rice; assay: Whole plant screen for plant growth regulator activity, rice (RC); type: in vivo, Rice (Ishikari); conditions: 4000 ppm (4 kg/ha), visual score after 2-6 weeks; for T = Tillering or side shooting: * = decrease in tillering
Procedure: as §1, §2, §3, §4, §5

[3] = tested on: Tomato; assay: Whole plant screen for plant growth regulator activity, tomato (TO); type: in vivo, Tomato (Ailsa Craig); conditions: 4000 ppm (4 kg/ha), visual score after 2-6 weeks
Procedure: as §2, §3, §4, §5
An astrisk (*) after a score under "T" (tillering) indicated a decrease in tillering.

[4] = tested on: Wheat; assay: Whole plant screen for plant growth regulator activity, wheat (WW); type: in vivo, Wheat (Timmo); conditions: WW, 4000 ppm (4 kg/ha), visual score after 2-6 weeks; for T = Tillering or side shooting: * = decrease in tillering
Procedure: as §1, §2, §3, §4, §5

[5] = tested on: Spring Barley; assay: Intermediate Retardant Test, spring barley; type: in vivo, Spring Barley (Atem/kym); conditions: Hordeum vulgare, 672 h, overall spray, approximately 28 days, Table VII, read-out: Percentage Reduction in Height of Spring Barley (Compared to formulation blank)
From the text: (§6) Three species are involved in this test RICE, SPRING-BARLEY and APPLES. The variety and growth stages at spray are outlined in Table V. Compounds were applied at 500 ppm and 2000 ppm respectively (0.5 kg and 2 kg/ha^-1 at a field volume of 1000 l/ha^-1) as an overall spray except in the case of certain tests on APPLES. This gives a foliar and root component in the test, i.e., this test will detect the activity of both root and foliar acting compounds. The intermediate retardant test on APPLES of which the results are given in Table IX was different, in that a foliar (only) spray at 2000 ppm was compared with a root drench, also at 2000 ppm. The rice was grown in 4" `paddy` pots, i.e., the roots and bottom of the stems are immersed in water under conditions corresponding to those in paddy fields. Spring barley and apples were grown in 4" pots. The plants were assessed for height to top-most ligule at approximately 28 days after treatment for spring barley and rice and for height to apex at approximately 28 days after the treatment for apples. In each case the result for the 500 ppm and 2000 ppm test for each compound is compared to the height of the formulation blank in that test, presented as a percentage reduction in height compared to the formulation blank.
(§7) The prior art compound was compared with compounds of the present invention in side-by-side comparisons using the Intermediate Retardant Test described in Example 62, and the results are given in Tables X to XII where `A` is the prior art compound, 2-methyl-1-isopropyl-1-(pyrimidin-5-yl)-propan-1-ol).

[6] = tested on: Barley; assay: Whole plant screen for plant growth regulator activity, barley (BR); type: in vivo, Barley (Atem); conditions: BR, 4000 ppm (4 kg/ha), visual score after 2-6 weeks; for T = Tillering or side shooting: * = decrease in tillering
Procedure: as §1, §2, §3, §4, §5

[7] = tested on: Rice; assay: Intermediate Retardant Test, rice; type: in vivo, Rice (Ishikari); conditions: Oryza sativa, 672 h, overall spray, approximately 28 days, Table VI, read-out: Percentage Reduction in Height of Rice (Compared to formulation blank)
From the text: as §6, §7

[8] = tested on: Apples; assay: Intermediate Retardant Test, apples, foliar spray compared with root drench; type: in vivo, Apples (Red Delicious); conditions: 672 h, approximately 28 days, Table IX, read-out: Percentage Reduction in Height of Apples (Compared to formulation blank); for percent reduction in plant height at 2000 ppm: 2000 ppm (Foliar); for percent reduction in plant height at 2000 µg/mL: soil, 2000 pmm (Root), root drench
From the text: as §6, §7

Compound	G = Greening effect [1]	I = Interligular or internodal length reduction [1]	R = Retardation [1]	G = Greening effect [2]	I = Interligular or internodal length reduction [2]	R = Retardation [2]	G = Greening effect [4]	I = Interligular or internodal length reduction [4]	R = Retardation [4]	T = Tillering or side shooting [4]	percent reduction in plant height at 500 ppm [5]	percent reduction in plant height at 2000 ppm [5]	G = Greening effect [6]	I = Interligular or internodal length reduction [6]	R = Retardation [6]	T = Tillering or side shooting [6]	Percent reduction in rice height vs formulation blank at 500 ppm [7]	Percent reduction in rice height vs formulation blank at 2000 ppm [7]	percent reduction in plant height at 2000 ppm [8]	percent reduction in plant height at 2000 µg/mL [8]	other results
CC(C)CCCC(O)(c1cncnc1)C(C)(C)C (centres unmarked) [Compound 17, 2,2-Dimethyl-1-(4-methylpentyl)-1-(pyrimidin-5-yl)-propan-1-ol]	1 (10-30%)	3 (61-100%)	3 (61-100%)	1 (10-30%)	2 (31-60%)	2 (31-60%)	2 (31-60%)	3 (61-100%)	2 (31-60%)	2 (31-60%)	2%	28%	2 (31-60%)	3 (61-100%)	2 (31-60%)	2 (31-60%)	7%	10%	17%	66%	T = Tillering or side shooting [2]: 1 (10-30%); G = Greening effect [3]: 1 (10-30%); I = Interligular or internodal length reduction [3]: 1 (10-30%); R = Retardation [3]: 1 (10-30%)
CC(C)CCC#CC(O)(c1cncnc1)C(C)C (centres unmarked) [Compound 12, 2-Methyl-1-(5-methylhex-1-yne)-1-(pyrimidin-5-yl)-propan-1-ol]	1 (10-30%)	3 (61-100%)	2 (31-60%)	1 (10-30%)	2 (31-60%)	2 (31-60%)	1 (10-30%)	2 (31-60%)	2 (31-60%)	1 (10-30%)	3%	19%	2 (31-60%)	3 (61-100%)	2 (31-60%)	3 (61-100%)	5%	8%	2%	58%	T = Tillering or side shooting [2]: 1 (10-30%); G = Greening effect [3]: 1 (10-30%)
CC(C)C(O)(C#CC(C)(C)C)c1cncnc1 (centres unmarked) [Compound 10, 2-Methyl-1-(3,3-dimethylbut-1-yne)-1-(pyrmidin-5-yl)propan-1-ol]		3 (61-100%)	2 (31-60%)	1 (10-30%)	2 (31-60%)	2 (31-60%)	2 (31-60%)	3 (61-100%)	2 (31-60%)	1 (10-30%)	29%	62%	2 (31-60%)	3 (61-100%)	2 (31-60%)	2 (31-60%)	9%	20%	4%	69%	
